Test results reported in patent publication US6579519B2, “Sustained release and long residing ophthalmic formulation and the process of preparing the same” (Registrar, University of Delhi, priority 2000, dated 2003).

Assay: Maximum drug dissolved in polymeric micelles
Format: physicochemical
Conditions: room temperature
Protocol: In 100 mg of the lyophilized powder of the polymeric micelles nanoparticles, an alcoholic solution of indomethacin ([Indomethacin]=33 mg/ml) was added with constant stirring to get clear solution of polymeric micelles containing the drug of desired concentration dispersed in aqueous buffer. […] The drug loaded polymeric micelles was then lyophilized to get dry powder for subsequent use.
In 100 mg of dry powder of polymeric micelles, an alcoholic solution of nimesulide ([nimesulide]=10 mg/ml) was added with constant stirring to get clear solution. […] The drug loaded micelles was then lyophilized to get dry powder for subsequent use.

| Compound | Maximum of the drug dissolved in polymeric micelles [% w/w] |
| --- | --- |
| COc1ccc2c(c1)c(CC(=O)O)c(C)n2C(=O)c1ccc(Cl)cc1 [indomethacin, 1-(4 chlorobenzoyl)-5 methoxy-2-methyl-1H-indole-3acetic acid] | 10 |
| CS(=O)(=O)Nc1ccc([N+](=O)[O-])cc1Oc1ccccc1 [nimesulide, N-(4-nitro-2 phenoxyphenyl) methanesulphonamide] | 8 |
